Reference: patent US6949522B2, “β-2′- or 3′-halonucleosides” (Pharmasset, Inc., priority 2001, dated 2005)
pIC50: −log10 of the molar value. Like-named read-outs stand apart in the source and are kept apart here.

How the values were obtained:
BVDV (strain NADL) = assay: BVDV Q-RT-PCR assay in MDBK cells; format: cell-based, bovine viral diarrhea virus; details: MDBK cells, 24 hour incubation, viral RNA in supernatant, read-out: BVDV assay Q-PCR EC90
Experimental: Madin-Darby Bovine Kidney (MDBK) cells were maintained in DMEM/F12 supplemented with 10% heat-inactivated horse serum at 37° C. in a humidified, 5% CO2 atmosphere. Cells were seeded in 96-well plates at 5×10^3 cells/wcll and incubated for 1 hour. BVDV (strain NADL) was used to infect the cells in monolayer at MOI 0.02. After 45 minutes of infection, the viral inoculum was removed and the cells were washed twice. Media or media containing test compound was added to these cells, followed by 24 hour incubation. Cell supernatant fluids were collected, clarified by centrifugation (2 minutes, 3,000 g, room temperature) and viral RNA was prepared (QIAamp Viral RNA mini Kit, Qiagen). Viral RNA was detected in real-time RT-PCR.

human PBM cells = assay: Toxicity assay (MTS/MTT dye), human PBM cells; details: read-out: Cytotoxicity PBM IC50; human PBM cells, 5 days incubation
Experimental: (§1) After a three day-incubation for HepG2, or 5 days for human PBM cells, cell viability and mitochondrial activity were measured in a colorimetric assay using the MTS- or MTT dye method (Promega, Madison, Wis.).

HepG2 = assay: Toxicity assay (MTS/MTT dye), HepG2 cells; details: for Cytotoxicity HepG2 IC30: HepG2, three day-incubation (Table 1)
Experimental: as §1

[1] = tested on: 3TC-resistant (xxBRU 184V) HIV-1; assay: HIV-1 RT-assay on supernatant of acutely infected human PBM cells, strain xxBRU 184V; format: cell-based; details: for EC90: human PBM cells, 5 days, RT activity reduced by 90%, read-out: RT-Assay 184V EC90
Experimental: (§2) Human PBM cells (1×10^6 cells/T25 flask) were PHA stimulated for 2 or 3 days, and infected with either a wild type (LAI and xxBRU) or a 3TC-resistant (xxBRU 184V) HIV-1 strain at 100 TCID50, as previously described (27). The culture was kept for 5 days in presence of test compounds at serial 1-log dilutions. Subsequently, human PBM cells were removed from the culture supernatant by centrifugation (10 minutes, 400×g, 4° C.). This clarified supernatant was tested either in the RT-assay, or in the Q-RT-PCR assay.
(§3) Virus particles present in a 1 mL aliquot of culture supernatant were concentrated by high-speed centrifugation (2 hours, 20,000×g, 4° C.). The supernatant was then removed and the virus pellet was dispensed into a 100 μL virus solubilization buffer (VSB: 0.5% Triton X-100; 0.8 M NaCl, 0.5 mM phenylmethylsulfonyl, 20% glycerol, 50 mM Tris.HCl pH 7.8). A 10 μL aliquot of RT-VSB was mixed with 75 μL RT cocktail (60 mM Tris.HCl pH 7.8, 12 mM MgCl2, 6 mM DTT, 6 μg/mL poly (rA)n-oligo (dT)10-12, 1.2 mM dATP, and 80 μCi/mL 3H-TTP) and incubated for 2 hours at 37° C. Subsequently 100 μL of 10% TCA was added, and the total amount of incorporated 3H-TTP was determined.
(§4) HIV-1 present in culture supernatant fluids was quantified by two different methodologies: i) the Q-RT-PCR with read-out in log copies/mL; and ii) the endogenous viral RT assay on cell supernatant with read-out in log counts per minute/mL (CPM/mL). Upon addition of antiviral compounds to the culture media, a dose-related decrease in virus production was observed. Although the two methodologies measured different parameters (viral RNA versus active RT enzyme), results were not markedly different from each other. The HIV-1 Q-RT-PCR results were compared with a previously established cell-based antiviral drug evaluation assay (endogenous HIV-1 RT polymerization activity in cell supematant)(27).

HIV-1 LAI (wild type) [2] = assay: HIV-1 RT-assay on supernatant of acutely infected human PBM cells, strain LAI; format: cell-based; details: 5 days, RT activity reduced by 90%
Experimental: as §2, §3, §4

HIV-1 xxBRU (wild type) [3] = assay: HIV-1 Q-RT-PCR assay in human PBM cells, strain xxBRU; format: cell-based; details: 5 days, viral RNA reduced by 90%
Experimental: as §2
(§5) Viral RNA present in the culture supernatant was prepared using commercially available columns (QIAamp Viral RNA mini Kit, Qiagen, Valencia, Calif.). Viral RNA was detected in real-time by monitoring increases in fluorescence signal that resulted from degradation of a quenched fluorescent probe molecule following the hybridization of the probe to the arnplified viral DNA (TaqMan 7700 chemistry, Applied Biosystems, Foster City, Calif.). The TaqMan probe and primers were designed using the Primer Express software (Applied Biosystems); they cover highly conserved sequences complementary to an 81 base pair long fragment from the HIV-1 RT gene between codon 230 and 257 of the group MHIV-1 genome; • probe 5′-6FAM-[…]-TAMRA-3′ (Sequence 1) • sense primer: 5′-[…]-3′ (Sequence 2); and • antisense primer 5′-[…]-3′ (Sequence 3).
(§6) A total of 5 μL RNA was RT-amplified using reagents and conditions as described by the manufacturer (Applied Biosystems). […] Copy numbers were calibrated using the Roche Amplicor HIV-1 Monitor test™ (Roche Diagnostics, Branchburg, N.J.) on a 1-log dilution series of a clinical HIV-1 genotype B isolate (attenuated in vitro to obtain a high viral load). The 10-6 diluted sample became positive at threshold cycle (Ct=PCR cycle threshold where a sample becomes detectable)=35.52, which corresponded to 1,410 copies/mL in the Roche monitor HIV-1 version II assay. When validated over a dynamic range of 3 logs of virus, there was excellent correlation (r2˜1) between the two methodologies. […] Therefore, the currently designed primer and probe set allowed reliable quantification of both clinical samples and HIV-1 in vitro preparations.
as §4

HIV-1 xxBRU (wild type) [4] = assay: HIV-1 RT-assay on supernatant of acutely infected human PBM cells, strain xxBRU; format: cell-based; details: 5 days, RT activity reduced by 90%
Experimental: as §2, §3, §4

[5] = tested on: 3TC-resistant (xxBRU 184V) HIV-1; assay: HIV-1 Q-RT-PCR assay in human PBM cells, strain xxBRU 184V; format: cell-based; details: for EC90: human PBM cells, 5 days, viral RNA reduced by 90%, read-out: Q-RT-PCR HIV-1 assay 184V EC90
Experimental: as §2, §5, §6, §4

HIV-1 LAI (wild type) [6] = assay: HIV-1 Q-RT-PCR assay in human PBM cells, strain LAI; format: cell-based; details: 5 days, viral RNA reduced by 90%
Experimental: as §2, §5, §6, §4

HBV = HBV Q-PCR assay in HepAD38 (AD38) cells; format: cell-based, hepatitis B virus; details: AD38 cells, 5-day incubation, HBV DNA in supernatant, read-out: HBV assay Q-PCR EC90
Experimental: The HepAD38 cell line replicates HBV under conditions that can be regulated with tetracycline (12, 15). In the presence of this drug, the cell supernatant is virtually free of viral DNA, but upon the removal of tetracycline from the culture medium, these cells secrete virus-like particle into the supernatant (12). HepAD38 cells were seeded at 5×10^4 cells/well in a 96-well plate in seeding medium (DMEM/F12+10% FBS, 50 μg/mL penicillin, 50 μg/mL streptomycin, 100 μg/mL kanamycin, 400 μg/mL G418, and 0.3 μg/mL tetracycline) and incubated for 2 days at 37° C. in a 5% CO2 humid atmosphere. The seeding media was removed, and cells were washed 3 times with PBS. Cells were then incubated with 200 μL assay medium (DMEM/F12+10% FBS+P/S/K) containing either no compound, test compound, or control drugs at 10 μM. After a 5-day incubation, the cell supernatant was collected and stored at −70° C. until HBV DNA was quantified. HBV DNA was extracted from supernatant using QiaAmp DNA blood Mini kit (Qiagen) and nucleic acids eluted in 200 μL. Viral DNA was detected in Q-PCR. The TaqMan probe and primers were designed using the Primer Express software (Applied Biosystems) and cover highly conserved sequences complementary to the DNA sequences present in HBsAg (24). A total of 5 μL DNA was amplified using reagents and conditions as described by the manufacturer (Applied Biosystems). […]

in vitro [7] = details: human
Experimental: as §1

in vitro [8] = details: human; remark: listed apart in the source
Experimental: as §1

Nc1nc(=O)n([C@H]2C=C[C@@H](CO)O2)cc1F [D-D4FC, β-D-2′,3′-didehydro-2′3′-dideoxy-5-fluorocytidine, reference compound]
EC90 (BVDV (strain NADL)): > 200 µM
pIC50 (human PBM cells): 4.10
Cytotoxicity HepG2 IC30 (HepG2): >100 µM
pIC50 (HepG2; read-out: Cytotoxicity HepG2 IC50, HepG2, three day-incubation (Table 3)): < 4.00
RT-Assay FI, fold increase (EC90 HIV-1184V/EC90 HIV-1xxBRU) [1]: 1.9
EC90 [1]: 0.15 µM
EC90 (HIV-1 LAI (wild type) [2]): 0.18 µM
EC90 (HIV-1 xxBRU (wild type) [3]): 0.22 µM
EC90 (HIV-1 xxBRU (wild type) [4]): 0.08 µM
Q-RT-PCR HIV-1 assay FI, fold increase (EC90 HIV-1184V/EC90 HIV-1xxBRU) [5]: 0.97
EC90 [5]: 0.21 µM
EC90 (HIV-1 LAI (wild type) [6]): 0.38 µM

β-D-2′,3′-didehydro-2′,3.′-dideoxy-3′-fluoro-5-fluoro cytidine [Compound 10-F]
EC90 (HBV): > 100 µM
EC90 (BVDV (strain NADL)): > 200 µM
Cytotoxicity HepG2 IC30 (HepG2): >100 µM
RT-Assay FI, fold increase (EC90 HIV-1184V/EC90 HIV-1xxBRU) [1]: 13.2
EC90 [1]: 494 µM
EC90 (HIV-1 LAI (wild type) [2]): 34.5 µM
EC90 (HIV-1 xxBRU (wild type) [3]): 34.8 µM
EC90 (HIV-1 xxBRU (wild type) [4]): 37.5 µM
EC90 [5]: > 100 µM
EC90 (HIV-1 LAI (wild type) [6]): 36.3 µM

β-L-2′,3′-didehydro-2′,3.′-dideoxy-3′-fluoro-5-fluoro cytidine [Compound 23-F]
EC90 (HBV): 68 µM
EC90 (BVDV (strain NADL)): > 200 µM
Cytotoxicity HepG2 IC30 (HepG2): >100 µM
RT-Assay FI, fold increase (EC90 HIV-1184V/EC90 HIV-1xxBRU) [1]: 479
EC90 [1]: 67 µM
EC90 (HIV-1 LAI (wild type) [2]): 0.12 µM
EC90 (HIV-1 xxBRU (wild type) [3]): 0.16 µM
EC90 (HIV-1 xxBRU (wild type) [4]): 0.14 µM
Q-RT-PCR HIV-1 assay FI, fold increase (EC90 HIV-1184V/EC90 HIV-1xxBRU) [5]: 333
EC90 [5]: 53 µM
EC90 (HIV-1 LAI (wild type) [6]): 0.09 µM

NC(=O)c1ncn([C@@H]2O[C@H](CO)[C@@H](O)[C@H]2O)n1 [Ribavirin, 1-β-D-ribofuranosyl-1H-,1,2,4-triazole-3-carboxamide, reference compound]
EC90 (HBV; Hepatitis B virus, HePAD38, 120 h): > 100 µM
EC90 (BVDV (strain NADL); Bovine viral diarrhea virus isolates and strains): 5 µM
IC50 at 5 days (in vitro [7]): > 100 µM
IC50 at 3 days (in vitro [8]): 90 µM
